Source: the supplement of paper PMC11208160

Assay: recombinant UMI read abundance after kanamycin selection (control-corrected) (log10(CPM+1)); higher = more efficient recombination; extreme values may be limits of the assay; sequences stand for … in AGTGCAGAGAAAATCGGCCAGTTTTCTCTGCCTGCAGTCCGCATGCCGTGGGACCCCTTGGGTTCTAACCTGTTGCCTAGATTTATGCAGCGGACTGCCTTTCTCCCAAAGTGATAAACCGG…AGGTTGGTTTCACT; site = the 11-nt donor
Summary of the method: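 After plating on IPTG (0.07 mM) plus kanamycin, or unselected, in two replicates, recombinant UMIs were PCR-amplified across the donor–target junction and sequenced. The cells were Escherichia coli co-electroporated with a UMI-tagged donor and donor-binding-loop pair library and a target plasmid with a fixed target and T7-inducible IS621 bridge recombinase. Values are log10(CPM+1), with CPM averaged over replicates and scaled by control-derived factors.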
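Further: IS621 bridge recombinase in Escherichia coli cells against a fixed T5 target plasmid.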

Sequence	recombinant UMI read abundance (log10)
AGATCGACATGGACCGGTTTTCCCGGTAATCCGTATTTGTT (site TGATCGACTAA)	0.00951
AGATGCGCATGGACCGGTTTTCCCGGTAATCCGTATTTGAG (site AGATGCGCTCT)	1.86
AGATGGGCATGGACCGGTTTTCCCGGTAATCCGTATTTGGA (site AGATGGGCTTC)	1.22
AGATTATCATGGACCGGTTTTCCCGGTAATCCGTATTTGCT (site AGATTATCTAG)	2.71
AGATTATCATGGACCGGTTTTCCCGGTAATCCGTATTTGCT (site CGATCATCTAG)	0
AGCAAGACATGGACCGGTTTTCCCGGTAATCCGTATTTGCT (site AGCAAGACTAG)	1.94
AGCAAGACATGGACCGGTTTTCCCGGTAATCCGTATTTGCT (site AGGAAGACTTG)	0
AGCAAGACATGGACCGGTTTTCCCGGTAATCCGTATTTGGA (site AGCAAGACTTC)	1.8
AGCAAGACATGGACCGGTTTTCCCGGTAATCCGTATTTGGA (site AGGAAGACTTG)	0
AGCAAGGCATGGACCGGTTTTCCCGGTAATCCGTATTTGCT (site AGAAAGGCTAG)	0
AGCAAGGCATGGACCGGTTTTCCCGGTAATCCGTATTTGCT (site AGCAAGGCTAG)	2.61
AGCAAGGCATGGACCGGTTTTCCCGGTAATCCGTATTTGCT (site AGGAAGGCTAG)	0.0349
AGCAAGGCATGGACCGGTTTTCCCGGTAATCCGTATTTGCT (site AGTAAGGCTAG)	0.238
AGCAATCCATGGACCGGTTTTCCCGGTAATCCGTATTTGAA (site AGCAATCCTTT)	1.33
AGCAATCCATGGACCGGTTTTCCCGGTAATCCGTATTTGAA (site CGCAATCCTTT)	0
AGCAATCCATGGACCGGTTTTCCCGGTAATCCGTATTTGAA (site GGCAATCCTTT)	0.00676
AGCAATCCATGGACCGGTTTTCCCGGTAATCCGTATTTGAA (site TGCAATCCTTT)	0.186
AGCACGTCATGGACCGGTTTTCCCGGTAATCCGTATTTGAC (site AGCACGTCTGT)	2.28
AGCAGATCATGGACCGGTTTTCCCGGTAATCCGTATTTGAA (site AGCAGATCTTT)	1.77
AGCAGTACATGGACCGGTTTTCCCGGTAATCCGTATTTGCG (site AGCAGTACTCG)	1.25
AGCAGTGCATGGACCGGTTTTCCCGGTAATCCGTATTTGAG (site AGCAGTGCTCT)	1.93
AGCATTACATGGACCGGTTTTCCCGGTAATCCGTATTTGAT (site AGCATTACTAT)	1.01
AGCATTCCATGGACCGGTTTTCCCGGTAATCCGTATTTGTC (site AGCATTCCTGA)	0
AGCCAAGCATGGACCGGTTTTCCCGGTAATCCGTATTTGTT (site AGCCAAGCTAA)	1.09
AGCCAAGCATGGACCGGTTTTCCCGGTAATCCGTATTTGTT (site AGCCCAGCTAA)	0.0145

Sequence	recombinant UMI read abundance (log10)
AGCCAAGCATGGACCGGTTTTCCCGGTAATCCGTATTTGTT (site AGCCGAGCTAA)	0.00778
AGCCAAGCATGGACCGGTTTTCCCGGTAATCCGTATTTGTT (site AGCCTAGCTAA)	0.0061
AGCCCAGCATGGACCGGTTTTCCCGGTAATCCGTATTTGGG (site AGCACAGCTCC)	0.0163
AGCCCAGCATGGACCGGTTTTCCCGGTAATCCGTATTTGGG (site AGCCCAGCTCC)	0.35
AGCCCAGCATGGACCGGTTTTCCCGGTAATCCGTATTTGGG (site AGCGCAGCTCC)	0.0133
AGCCCAGCATGGACCGGTTTTCCCGGTAATCCGTATTTGGG (site AGCTCAGCTCC)	0.0182
AGCCTAACATGGACCGGTTTTCCCGGTAATCCGTATTTGCT (site AGCCTAACTAG)	0
AGCCTACCATGGACCGGTTTTCCCGGTAATCCGTATTTGTT (site AGCCTAACTAA)	0
AGCCTACCATGGACCGGTTTTCCCGGTAATCCGTATTTGTT (site AGCCTACCTAA)	0.0133
AGCCTACCATGGACCGGTTTTCCCGGTAATCCGTATTTGTT (site AGCCTAGCTAA)	0.00248
AGCCTACCATGGACCGGTTTTCCCGGTAATCCGTATTTGTT (site AGCCTATCTAA)	0.00614
AGCCTAGCATGGACCGGTTTTCCCGGTAATCCGTATTTGAT (site AGCCTAGCTAA)	0.0122
AGCCTAGCATGGACCGGTTTTCCCGGTAATCCGTATTTGAT (site AGCCTAGCTAC)	0.0164
AGCCTAGCATGGACCGGTTTTCCCGGTAATCCGTATTTGAT (site AGCCTAGCTAG)	0
AGCCTAGCATGGACCGGTTTTCCCGGTAATCCGTATTTGAT (site AGCCTAGCTAT)	0.0107
AGCCTAGCATGGACCGGTTTTCCCGGTAATCCGTATTTGTA (site AGCCTAGCTAA)	0.0136
AGCCTAGCATGGACCGGTTTTCCCGGTAATCCGTATTTGTA (site AGCCTAGCTCA)	0.0462
AGCCTAGCATGGACCGGTTTTCCCGGTAATCCGTATTTGTA (site AGCCTAGCTGA)	0
AGCCTAGCATGGACCGGTTTTCCCGGTAATCCGTATTTGTA (site AGCCTAGCTTA)	0.245
AGCCTAGCATGGACCGGTTTTCCCGGTAATCCGTATTTGTC (site AGCCTAGCTAA)	0.199
AGCCTAGCATGGACCGGTTTTCCCGGTAATCCGTATTTGTC (site AGCCTAGCTCA)	0.0312
AGCCTAGCATGGACCGGTTTTCCCGGTAATCCGTATTTGTC (site AGCCTAGCTGA)	0
AGCCTAGCATGGACCGGTTTTCCCGGTAATCCGTATTTGTC (site AGCCTAGCTTA)	0.0185
AGCCTATCATGGACCGGTTTTCCCGGTAATCCGTATTTGAC (site AGCCTATCTGT)	0.685
AGCCTATCATGGACCGGTTTTCCCGGTAATCCGTATTTGAC (site AGCCTCTCTGT)	0

Sequence	recombinant UMI read abundance (log10)
AGCCTATCATGGACCGGTTTTCCCGGTAATCCGTATTTGAC (site AGCCTGTCTGT)	0
AGCCTATCATGGACCGGTTTTCCCGGTAATCCGTATTTGAC (site AGCCTTTCTGT)	0
AGCCTTTCATGGACCGGTTTTCCCGGTAATCCGTATTTGAT (site AGCCTTTCTAT)	0
AGCCTTTCATGGACCGGTTTTCCCGGTAATCCGTATTTGAT (site AGCCTTTCTCT)	0
AGCCTTTCATGGACCGGTTTTCCCGGTAATCCGTATTTGAT (site AGCCTTTCTGT)	0
AGCCTTTCATGGACCGGTTTTCCCGGTAATCCGTATTTGAT (site AGCCTTTCTTT)	0
AGCGCGACATGGACCGGTTTTCCCGGTAATCCGTATTTGTG (site AGCGCGACTCA)	0.829
AGCGCTCCATGGACCGGTTTTCCCGGTAATCCGTATTTGCC (site AGCGCTCCTGG)	0
AGCGGCTCATGGACCGGTTTTCCCGGTAATCCGTATTTGGG (site AGCGGCTCTCC)	0.204
AGCTAAGCATGGACCGGTTTTCCCGGTAATCCGTATTTGGG (site AGCTAAGCTCC)	0.00725
AGCTAAGCATGGACCGGTTTTCCCGGTAATCCGTATTTGGG (site AGCTCAGCTCC)	0.0056
AGCTAAGCATGGACCGGTTTTCCCGGTAATCCGTATTTGGG (site AGCTGAGCTCC)	0.0394
AGCTAAGCATGGACCGGTTTTCCCGGTAATCCGTATTTGGG (site AGCTTAGCTCC)	0.117
AGCTACGCATGGACCGGTTTTCCCGGTAATCCGTATTTGAA (site AGCTACGCTTT)	1.7
AGCTAGCCATGGACCGGTTTTCCCGGTAATCCGTATTTGGA (site AGCTAGCCTTC)	0.00495
AGCTAGGCATGGACCGGTTTTCCCGGTAATCCGTATTTGGT (site AGCTAGGCTAC)	0.659
AGCTAGGCATGGACCGGTTTTCCCGGTAATCCGTATTTGGT (site CGCTAGGCTAC)	0.00222
AGCTAGGCATGGACCGGTTTTCCCGGTAATCCGTATTTGGT (site GGCTAGGCTAC)	0.0154
AGCTAGGCATGGACCGGTTTTCCCGGTAATCCGTATTTGGT (site TGCTAGGCTAC)	0.0219
AGCTCACCATGGACCGGTTTTCCCGGTAATCCGTATTTGGG (site AGCTCAACTCC)	0.0175
AGCTCACCATGGACCGGTTTTCCCGGTAATCCGTATTTGGG (site AGCTCACCTCC)	0.0182
AGCTCACCATGGACCGGTTTTCCCGGTAATCCGTATTTGGG (site AGCTCAGCTCC)	0.0165
AGCTCACCATGGACCGGTTTTCCCGGTAATCCGTATTTGGG (site AGCTCATCTCC)	0
AGCTCAGCATGGACCGGTTTTCCCGGTAATCCGTATTTGAG (site AGCTCAGCTCA)	0.0132
AGCTCAGCATGGACCGGTTTTCCCGGTAATCCGTATTTGAG (site AGCTCAGCTCC)	0.026
